One compound from patent US20240279190A1, “COMPOUNDS FOR MODULATING PLATELET-TYPE 12-(S)-LIPOXYGENASE AND METHODS OF USE FOR SAME” (The Regents of The University of California, priority 2021, published 2024) can be followed below.

The target of assay [1] is T1, 12-LOX mutant A417I/V418M/S594T (Homo sapiens, UniProt P18054, A417I/S594T/V418M).
T1 construct: 6xHis (N); made in house; pFastBac1 shuttle vector
T1 sequence (P18054 1-663 A417I/V418M/S594T): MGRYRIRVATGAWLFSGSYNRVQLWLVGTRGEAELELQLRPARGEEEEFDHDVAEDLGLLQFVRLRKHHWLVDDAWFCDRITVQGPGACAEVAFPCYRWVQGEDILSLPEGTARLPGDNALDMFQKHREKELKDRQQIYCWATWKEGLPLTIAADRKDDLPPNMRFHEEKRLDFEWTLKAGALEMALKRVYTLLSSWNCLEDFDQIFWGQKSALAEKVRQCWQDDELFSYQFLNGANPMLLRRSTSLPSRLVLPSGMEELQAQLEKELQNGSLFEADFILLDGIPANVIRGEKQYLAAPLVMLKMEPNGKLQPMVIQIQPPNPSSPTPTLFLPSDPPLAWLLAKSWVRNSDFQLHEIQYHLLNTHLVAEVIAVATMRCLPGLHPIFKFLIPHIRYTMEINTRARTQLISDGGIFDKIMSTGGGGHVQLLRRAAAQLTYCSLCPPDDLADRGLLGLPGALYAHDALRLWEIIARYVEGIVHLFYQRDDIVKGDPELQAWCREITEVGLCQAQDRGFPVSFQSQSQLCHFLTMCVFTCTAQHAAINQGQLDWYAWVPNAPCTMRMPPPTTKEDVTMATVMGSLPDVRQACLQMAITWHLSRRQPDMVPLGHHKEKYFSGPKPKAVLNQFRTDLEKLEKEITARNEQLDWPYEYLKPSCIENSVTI
As to the kind of experiment: UV-Vis-based IC50 assay, A417I/V418M/S594T mutant. The assay is classed as biochemical. The source says:
(§1) Based on the ML355 binding mode predicted by the modeling, all residues within 5 Å of any atom of ML355 were selected for experimental mutagenesis. The selected residues were replaced with amino acids with either bulkier or smaller side chains in order to determine what specific interactions play a role in inhibitor binding. […] The numbering refers to the UniProt accession number P18054 sequence, with the N-terminal methionine assigned as amino acid number one. The primers for all mutants were designed using the online QuikChange Primer Design tool (http://www.genomics.agilent.com/primerDesignProgram.jsp) from Agilent Technologies (CA, USA). The mutations were introduced by using the QuikChange® II XL site-directed mutagenesis kit from Agilent, following the instructions in the protocol provided. […]
(§2) The wild type 12-LOX (wt-12-LOX) enzyme and its mutants were expressed as fusion proteins, with an N-terminal 6×His tag, and were affinity purified by nickel-iminodiacetic acid agarose using FPLC (Biorad).
(§3) The percent inhibition was determined by comparing the enzyme rates of the control (DMSO solvent) and the inhibitor sample by following the formation of the conjugated diene product at 234 nm (ε=25,000 M^−1cm^−1). […] The substrate concentration was quantitatively determined by allowing the enzymatic reaction to go to completion in the presence of soybean LOX-1. […]

Assay [2] concerns the target T2, 12-LOX mutant L407G/A417I/V418M (Homo sapiens, UniProt P18054, A417I/L407G/V418M).
T2 construct: 6xHis (N); made in house; pFastBac1 shuttle vector
T2 sequence (P18054 1-663 L407G/A417I/V418M): T1 sequence (P18054 1-663 A417I/V418M/S594T) with L407G, T594S
As to the kind of experiment: UV-Vis-based IC50 assay, L407G/A417I/V418M mutant. The assay is classed as biochemical.
Description: as §1, §2, §3

The mark [3] stands for this setting: 20 uM inhibitor, read-out: Percent inhibition at 20 uM inhibitor.

Positions count from the first letter of the chain named.

On to `COc1cccc(CNc2ccc(S(=O)(=O)Nc3nc4c(ccc5ccccc54)s3)cc2)c1O` [Compound LOX-12-001, 4-((2-hydroxy-3-methoxybenzyl)amino)-N-(naphtho[1,2-d]thiazol-2-yl)benzenesulfonamide], for which the IC50 was > 20 µM in assay [1] and > 150 µM in assay [2]. Besides, the inhibition at 20 µM is 44% in assay [1] (setting [3]) and 10% in assay [2] (setting [3]).
